# Experimental data from patent US5965106A, “In vivo binding pair pretargeting” (PerImmune Holdings, Inc., priority 1995, dated 1999).
# B1: ANPAP-NADP^+ -rhDHFR: DHFR stabilized through covalent conjugation with a photoaffinity analog of NADP^+ (ANPAP-NADP) followed by photoactivation (conjugate, UniProt P00374 1-187, looked up)
# Dihydrofolate reductase: MVGSLNCIVAVSQNMGIGKNGDLPWPPLRNEFRYFQRMTTTSSVEGKQNLVIMGKKTWFSIPEKNRPLKGRINLVLSRELKEPPQGAHFLSRSLDDALKLTEQPELANKVDMVWIVGGSSVYKEAMNHPGHLKLFVTRIMQDFESDTFFPEIDLEKYKLLPEYPGVLSDVQEEKGIKYKFEVYEKND
# modifications: photo-crosslinked ANPAP-NADP+ analog
# B2: rhDHFR: recombinant human dihydrofolate reductase (protein, UniProt P00374 1-187, looked up)
# Dihydrofolate reductase: B1 Dihydrofolate reductase
# Tests used:
# rhDHFR [1] = assay: Inhibition of rhDHFR by MTX and DTPA-MTX (dihydrofolate reduction, A340); type: biochemical, human; conditions: 1×10^-8 M and 5×10^-9 M inhibitor concentration, 22° C., pH 7.5
# Method: Dihydrofolate reductase concentrations of 10^-7 -10^-9 M are easily assayed by monitoring the time dependent decrease in A340 caused by the reduction of dihydrofolate and the oxidation of the cofactor nicotinadenine dinucleotide phosphate (NADPH). The assay is performed at 22° C. (room temperature) in 50 mM Tris, pH 7.5 and 60 μM NADPH and initiated by adding dihydrofolate to 50 μM. One enzyme unit is equivalent to the amount of enzyme required to reduce 1 μmole of dihydrofolate to 1 μmole tetrahydrofolate in 1 min. at 22° C. and can be quantitated using an extinction coefficient of 12,300 M^-1 cm^-1.
# The inhibition rate of DHFR by MTX and its derivatives is determined by the decrease in the conversion of dihydrofolate to tetrahydrofolate. […] Derivatives of methotrexate are evaluated by comparing inhibition rates to the inhibition rate of MTX at equivalent concentrations.
# The effects of modifying methotrexate with DPTA were unknown and required a comparison of the activity of equimolar concentrations of methotrexate and DTPA-MTX. […] The inhibition of rhDHFR by MTX and DTPA-MTX were then measured under the assay conditions mentioned earlier and compared.
# 16.88 bound rhDHFR = assay: Inhibition of DHFR bound in an antibody-DHFR complex by MTX and DTPA-MTX, versus native rhDHFR; conditions: 16.88-DHFR titrated to activity of native rhDHFR
# [2] = tested on: wild-type recombinant human dihydrofolate reductase (rhDHFR); conditions: noncovalent binding; cited from earlier work
# [3] = Biodistribution and clearance in nude mice; type: in vivo, nude mouse
# Method: In order to compare the biodistribution and clearance of ^111 In-DTPA-MTX with that of ^111 In-DTPA in the nude mouse, ^111 In-DTPA-MTX is administered at a dose of 9 μg and 8 μCi and ^111 In-DTPA is administered at a dose of 9 μg and 7 μCi by intravenous injection into the lateral tail vein. Animals are sacrificed a 1, 2, 4 and 24 hours after injection in groups of three animals per time point. […] In addition, there is low uptake of the MTX conjugate in the liver which is not seen with the labeled DTPA.
# [4] = Biodistribution and clearance in rabbits; type: in vivo, New Zealand white rabbit; conditions: rabbit
# Method: In order to compare the biodistribution and clearance of ^111 In-DTPA-MTX with that of ^111 In-DTPA in the New Zealand white rabbit, approximately 140-190 μg and 120 μCi of each agent is administered to three animals each by intravenous injection in the central ear […]. One animal of each group is sacrificed at 1, 4 and 24 hours after injection.
# [5] = in vivo; cited from earlier work
# [6] = Whole body clearance from athymic mice; type: in vivo, athymic nu/nu mice; conditions: 50 uCi, lateral tail vein, 0.5-24 hours
# Method: Clearance of the ^111 In-DTPA-MTX at a rate similar to that of ^111 In-DTPA would indicate that rapid body clearance of the portion of the conjugate not bound in tumor tissue by antibody-DHFR may be expected. Such rapid clearance would ensure that nearly all the unbound radionuclide would decay outside the body.
# Three athymic nu/nu mice were injected via the lateral tail vein with 50 uCi ^111 In-DTPA-MTX in 0.5 mL 10% normal mouse serum in phosphate buffered normal saline. A second group of three animals received 50 uCi ^111 In-DTPA by the same route. All animal were examined for whole body retention of In-111 in a Capintec dose calibrator at 0.5, 1, 2, 3, 4, and 24 hours after injection.
# rhDHFR [7] = assay: Stability of conjugated enzyme: percent DHFR activity remaining; type: physicochemical, human
# Method: A 10-fold molar excess of the photoaffinity analog was mixed with the enzyme, and the volume adjusted to a protein concentration of 1 mg/ml using 10 mM Tris-HCl buffer (pH 7.5). The mixture was kept in ice at a 10 cm distance from the light source while photoactivation was carried out for 5 minutes with occasional stirring. An aliquot was assayed for DHFR activity before and after photoactivation. The NADP^+ -linked enzyme was purified by gel-filtration using 10 mM sodium phosphate buffer, pH 7.2, containing 20 mM NaCl. Fractions were assayed for DHFR activity before they were pooled for protein estimation (using Pierce BCA reagent) and determination of incorporation of NADP^+ moieties per enzyme molecule.
# […] Percent stability was calculated by comparing with a sample kept at 4° C.
molecule,measurement,setting,value
CN(Cc1cnc2nc(N)nc(N)c2n1)c1ccc(C(=O)N[C@@H](CCC(=O)NNC(=O)CN(CCN(CCN(CC(=O)O)CC(=O)O)CC(=O)O)CC(=O)O)C(=O)O)cc1 [DTPA-MTX],inhibitory effect on dihydrofolate reduction compared with MTX,rhDHFR [1],virtually identical to MTX inhibition
same,inhibition of/binding to 16.88 bound rhDHFR compared with equivalent activity of native rhDHFR,16.88 bound rhDHFR,confirmed the methotrexate data
"NC(=O)C1=CN([C@@H]2O[C@H](COP(=O)(O)OP(=O)(O)OC[C@H]3O[C@@H](n4cnc5c(N)ncnc54)[C@H](OP(=O)(O)O)[C@@H]3O)[C@@H](O)[C@H]2O)C=CC1 [NADPH, nicotinadenine dinucleotide phosphate]",protection of rhDHFR from thermal denaturation,[2],capable of protecting
NC(=O)c1ccc[n+]([C@@H]2O[C@H](COP(=O)([O-])OP(=O)(O)OC[C@H]3O[C@@H](n4cnc5c(N)ncnc54)[C@H](OP(=O)(O)O)[C@@H]3O)[C@@H](O)[C@H]2O)c1 [NADP],protection of rhDHFR from thermal denaturation,[2],capable of protecting
O=C([O-])CN(CCN(CC(=O)[O-])CC(=O)[O-])CCN(CC(=O)[O-])CC(=O)[O-].[111In+3].[H+].[H+] [^111 In-DTPA],injected dose per gram (ml) remaining in the serum,"[3]; 1 hour post injection, i.v., 9 μg",less than 0.2%
same,kidney activity (clearance via urine),"[3]; nude mouse, all time points 1-24 hours",activity in the kidney at all time points
same,liver uptake,"[3]; nude mouse, i.v.",not seen
same,kidney activity levels,[4]; i.v.,Low activity levels
same,urine activity (clearance via urine),"[4]; i.v. 140-190 μg, 120 μCi",high urine activity levels
same,clearance from the circulation,[5],clear rapidly from the circulation
same,retention in normal tissues,[5],little retention in normal tissues
same,whole body clearance,[6],clear from the mice at similar rates
B1,Stability: percent enzyme activity remaining after incubation,"rhDHFR [7]; 0 minutes, 37° C.",100%
same,Stability: percent enzyme activity remaining after incubation,"rhDHFR [7]; 60 minutes, 37° C.",82%
same,Stability: percent enzyme activity remaining after incubation,"rhDHFR [7]; 120 minutes, 37° C.",78%
same,Stability: percent enzyme activity remaining after incubation,"rhDHFR [7]; 180 minutes, 37° C.",78%
same,Stability: percent enzyme activity remaining after incubation,"rhDHFR [7]; 1080 minutes, 23° C.",67%
same,Percent remaining activity following photoactivation,rhDHFR [7]; photoactivation time 5 minutes,100%
B2,Stability: percent enzyme activity remaining after incubation,"rhDHFR [7]; 0 minutes, 37° C.",100%
same,Stability: percent enzyme activity remaining after incubation,"rhDHFR [7]; 30 minutes, 37° C.",18%
same,Stability: percent enzyme activity remaining after incubation,"rhDHFR [7]; 60 minutes, 37° C.",10%
